One assay has as its target Human alpha-thrombin (Homo sapiens (Human), UniProt P00734). Nature of the assay: Thrombin counterscreen for selectivity, fluorogenic substrate cleavage. The class given is biochemical. The settings on record: 10 min pre-incubation, Boc-Val-Pro-Arg-AMC 20 μM. (In general: The purpose of a counterscreen is to sort out artefacts and off-target activity.)
Another assay deals with Human FXIIa (Homo sapiens (Human), UniProt P00748). Description: Factor XIIa (FXIIa) inhibitory activity, chromogenic substrate (Pefachrome XIIa) cleavage. The format is biochemical. The conditions noted are these: 10 min pre-incubation, Pefachrome XIIa 400 μM.

pIC50: −log10 of the molar value. Counter-ions that a name gives are not always drawn. Some results are limits rather than exact numbers.

Chain of Human FXIIa (P00748 373-615): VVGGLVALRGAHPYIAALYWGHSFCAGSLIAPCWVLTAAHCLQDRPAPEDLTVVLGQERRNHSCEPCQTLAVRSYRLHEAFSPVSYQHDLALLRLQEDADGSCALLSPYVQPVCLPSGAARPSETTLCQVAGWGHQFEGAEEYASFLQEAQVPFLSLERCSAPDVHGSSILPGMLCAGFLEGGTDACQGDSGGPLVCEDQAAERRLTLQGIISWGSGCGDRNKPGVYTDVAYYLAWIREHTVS
Chain of Human FXIIa (P00748 20-372 partner): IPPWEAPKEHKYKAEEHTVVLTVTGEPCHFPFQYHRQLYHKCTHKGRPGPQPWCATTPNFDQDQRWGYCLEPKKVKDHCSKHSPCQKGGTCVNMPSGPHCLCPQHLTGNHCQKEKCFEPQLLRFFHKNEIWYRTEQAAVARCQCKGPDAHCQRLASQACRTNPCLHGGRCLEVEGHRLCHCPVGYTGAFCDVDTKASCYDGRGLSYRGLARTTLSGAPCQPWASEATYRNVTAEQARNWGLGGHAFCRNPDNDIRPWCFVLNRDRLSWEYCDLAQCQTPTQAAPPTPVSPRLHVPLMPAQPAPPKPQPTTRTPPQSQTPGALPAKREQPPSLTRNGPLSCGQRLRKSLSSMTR

Consider `Nc1c2c(nn1C(=O)C1CCNc3ccccc31)CN(C(=O)OCc1ccccc1)CC2` (stereo not shown) [Example 116, benzyl 3-amino-2-(1,2,3,4-tetrahydro-quinoline-4-carbonyl)-4,5-dihydro-2H-pyrazolo[3,4-c]pyridine-6(7H)-carboxylate], for which the figures for the pIC50 on Human alpha-thrombin and at Human FXIIa were 4.77 and 6.00, respectively.

`Nc1nn(C(=O)C2CCNc3ccccc32)c2c1CCN(C(=O)OCc1ccccc1)C2` (stereo not shown) [Example 117, benzyl 3-amino-1-(1,2,3,4-tetrahydro-quinoline-4-carbonyl)-4,5-dihydro-1H-pyrazolo[3,4-c]pyridine-6(7H)-carboxylate]: the values for the pIC50 on Human alpha-thrombin and against Human FXIIa were 5.30 and 4.35, respectively.

Regarding `Nc1c2c(nn1C(=O)C1CCNc3ccccc31)CNCC2` (stereo not shown) [Example 118, (3-amino-4,5,6,7-tetrahydro-pyrazolo[3,4-c]pyridin-2-yl)(1,2,3,4-tetrahydro-quinolin-4-yl)methanone], the pIC50 against Human alpha-thrombin was less than 4.00; against Human FXIIa, 6.22.

In the case of `CCC(=O)N1CCc2c(nn(C(=O)C3CCNc4ccccc43)c2N)C1` (stereo not shown) [Example 119, 1-(3-amino-2-(1,2,3,4-tetrahydro-quinoline-4-carbonyl)-4,5-dihydro-2H-pyrazolo[3,4-c]pyridin-6(7H)-yl)propan-1-one], the figures for the pIC50 against Human alpha-thrombin and on Human FXIIa were less than 4.07 and 6.35, respectively.

Consider `CCC(=O)N1CCc2c(N)nn(C(=O)C3CCNc4ccccc43)c2C1` (stereo not shown) [Example 120, 1-(3-amino-1-(1,2,3,4-tetrahydro-quinoline-4-carbonyl)-4,5-dihydro-1H-pyrazolo[3,4-c]pyridin-6(7H)-yl)propan-1-one], for which the pIC50 on Human alpha-thrombin was less than 4.12; against Human FXIIa, 4.82.

With `CC(C)C(=O)N1CCc2c(nn(C(=O)C3CCNc4ccccc43)c2N)C1` (stereo not shown) [Example 121, 1-(3-amino-2-(1,2,3,4-tetrahydro-quinoline-4-carbonyl)-4,5-dihydro-2H-pyrazolo[3,4-c]pyridin-6(7H)-yl)-2-methylpropan-1-one], the pIC50 against Human alpha-thrombin is less than 4.10; on Human FXIIa, 6.40.

As to `CN(C)C(=O)N1CCc2c(nn(C(=O)C3CCNc4ccccc43)c2N)C1` (stereo not shown) [Example 123, 3-amino-N,N-dimethyl-2-(1,2,3,4-tetrahydro-quinoline-4-carbonyl)-4,5-dihydro-2H-pyrazolo[3,4-c]pyridine-6(7H)-carboxamide], the values for the pIC50 at Human alpha-thrombin and at Human FXIIa were less than 4.10 and 6.46, respectively.

`CCS(=O)(=O)N1CCc2c(nn(C(=O)C3CCNc4ccccc43)c2N)C1` (stereo not shown) [Example 125, (3-amino-6-(ethylsulfonyl)-4,5,6,7-tetrahydro-pyrazolo[3,4-c]pyridin-2-yl)(1,2,3,4-tetrahydro-quinolin-4-yl)methanone]: the pIC50 at Human alpha-thrombin was 4.00; at Human FXIIa, 6.60.

As to `CCS(=O)(=O)N1CCc2c(N)nn(C(=O)C3CCNc4ccccc43)c2C1` (stereo not shown) [Example 126, (3-amino-6-(ethylsulfonyl)-4,5,6,7-tetrahydro-pyrazolo[3,4-c]pyridin-1-yl)(1,2,3,4-tetrahydro-quinolin-4-yl)methanone], the pIC50 was less than 4.15 against Human alpha-thrombin and 4.49 against Human FXIIa.

Regarding `CC(C)S(=O)(=O)N1CCc2c(nn(C(=O)C3CCNc4ccccc43)c2N)C1` (stereo not shown) [Example 127, (3-amino-6-(isopropyl-sulfonyl)-4,5,6,7-tetrahydro-pyrazolo[3,4-c]pyridin-2-yl)(1,2,3,4-tetrahydro-quinolin-4-yl)methanone], the pIC50 was less than 4.15 at Human alpha-thrombin and 6.70 against Human FXIIa.

On to `CC(C)S(=O)(=O)N1CCc2c(N)nn(C(=O)C3CCNc4ccccc43)c2C1` (stereo not shown) [Example 128, (3-amino-6-(isopropyl-sulfonyl)-4,5,6,7-tetrahydro-pyrazolo[3,4-c]pyridin-1-yl)(1,2,3,4-tetrahydro-quinolin-4-yl)methanone], for which the pIC50 was less than 4.19 at Human alpha-thrombin and 4.55 against Human FXIIa.

With `CC(C)S(=O)(=O)N1CCc2c(nn(C(=O)C3CCNc4ccc(F)cc43)c2N)C1` (stereo not shown) [Example 136, (3-amino-6-(isopropyl-sulfonyl)-4,5,6,7-tetrahydro-pyrazolo[3,4-c]pyridin-2-yl)(6-fluoro-1,2,3,4-tetrahydro-quinolin-4-yl)methanone], the pIC50 at Human alpha-thrombin is less than 4.26; against Human FXIIa it was 7.10.

Take `CC(C)(C)S(=O)(=O)N1CCc2c(nn(C(=O)C3CCNc4ccc(F)cc43)c2N)C1` (stereo not shown) [Example 138, (3-amino-6-(tert-butylsulfonyl)-4,5,6,7-tetrahydro-pyrazolo[3,4-c]pyridin-2-yl)(6-fluoro-1,2,3,4-tetrahydro-quinolin-4-yl)methanone]: the pIC50 against Human alpha-thrombin is less than 4.00; against Human FXIIa, 7.10.

As to `Nc1c2c(nn1C(=O)C1CCNc3ccc(F)cc31)CN(S(=O)(=O)CF)CC2` (stereo not shown) [Example 140, (3-amino-6-(fluoromethyl-sulfonyl)-4,5,6,7-tetrahydro-pyrazolo[3,4-c]pyridin-2-yl)(6-fluoro-1,2,3,4-tetrahydro-quinolin-4-yl)methanone], the pIC50 on Human alpha-thrombin is 4.22; against Human FXIIa, 6.89.

`Nc1c2c(nn1C(=O)C1CCNc3ccc(F)cc31)CN(S(=O)(=O)CC(F)F)CC2` (stereo not shown) [Example 142, (3-amino-6-(2,2-difluoroethyl-sulfonyl)-4,5,6,7-tetrahydro-pyrazolo[3,4-c]pyridin-2-yl)(6-fluoro-1,2,3,4-tetrahydro-quinolin-4-yl)methanone]: the results for the pIC50 against Human alpha-thrombin and against Human FXIIa were 4.40 and 6.70, respectively.

Turning to `Nc1c2c(nn1C(=O)C1CCNc3ccc(F)cc31)CN(S(=O)(=O)C1CC1)CC2` (stereo not shown) [Example 144, (3-amino-6-(cyclopropyl-sulfonyl)-4,5,6,7-tetrahydro-pyrazolo[3,4-c]pyridin-2-yl)(6-fluoro-1,2,3,4-tetrahydro-quinolin-4-yl)methanone], the negative-log IC50 (pIC50) was less than 4.10 against Human alpha-thrombin and 6.64 on Human FXIIa.

Consider `CCCN1CCc2c(nn(C(=O)C3CCNc4ccc(F)cc43)c2N)C1` (stereo not shown) [Example 149, (3-amino-6-propyl-4,5,6,7-tetrahydro-pyrazolo[3,4-c]pyridin-2-yl)(6-fluoro-1,2,3,4-tetrahydro-quinolin-4-yl)methanone], for which the pIC50 was 4.19 against Human alpha-thrombin and 7.30 at Human FXIIa.

`CC(C)N1CCc2c(nn(C(=O)C3CCNc4ccc(F)cc43)c2N)C1` (stereo not shown) [Example 151, Formic Acid salt of (3-amino-6-isopropyl-4,5,6,7-tetrahydro-pyrazolo[3,4-c]pyridin-2-yl)(6-fluoro-1,2,3,4-tetrahydro-quinolin-4-yl)methanone]: the pIC50 on Human alpha-thrombin is less than 4.15; on Human FXIIa it was 7.40.

For the compound `CC(C)CN1CCc2c(nn(C(=O)C3CCNc4ccc(F)cc43)c2N)C1` (stereo not shown) [Example 153, (3-amino-6-isobutyl-4,5,6,7-tetrahydro-pyrazolo[3,4-c]pyridin-2-yl)(6-fluoro-1,2,3,4-tetrahydro-quinolin-4-yl)methanone], the pIC50 was less than 4.00 at Human alpha-thrombin and 7.30 against Human FXIIa.

For `Nc1c2c(nn1C(=O)C1CCNc3ccc(F)cc31)CN(S(=O)(=O)c1cccnc1)CC2` (stereo not shown) [Example 157, (3-amino-6-(pyridin-3-ylsulfonyl)-4,5,6,7-tetrahydro-pyrazolo[3,4-c]pyridin-2-yl)(6-fluoro-1,2,3,4-tetrahydro-quinolin-4-yl)methanone], the figures for the negative-log IC50 (pIC50) against Human alpha-thrombin and against Human FXIIa were 4.82 and 6.15, respectively.

Broadly, the pIC50 is the negative decadic logarithm of the IC50, by convention in mol/L. High values mean a small IC50, low ones a large IC50.

The values above are taken from patent US11312723B2, “Pyranopyrazole and pyrazolopyridine immunomodulators for treatment of autoimmune diseases” (The Rockefeller University, priority 2017, dated 2022).
